Measured values as given in article PMC12705620 (Frontiers in Pharmacology, 2025).
Bridge positions count the residues as written; N and C are the ends. Square brackets hold non-standard residues; d marks the D form. Peptide text beside a SMILES is read from it. I, II: the chains in the order shown. Dap = NC[C@H](N)C(=O)O; Ahx = NCCCCCC(=O)O

Assays:
[1] = system: Enterococcus faecium LUH15122; type: cell-based; details: LUH15122, 18 h
Method: (§1) Bactericidal activity was assessed as previously described ([Breij et al., 2018]). Briefly, mid-logarithmic phase bacterial cultures were diluted in RPMI to 1 × 10^7 CFU/mL. For fungicidal assays, fungal cultures were prepared in RPMI supplemented with 1% glucose (Merck) and diluted to 2–5 × 10^5 CFU/mL. For each condition, 10 µL of the suspension was added to 90 µL of peptide-containing RPMI or RPMI supplemented with 50% (v/v) pooled human plasma (hereafter referred to as 50% plasma; final bacterial concentration 1 × 10^6 CFU/mL, final fungal concentration 2–5 × 10^4 CFU/mL. Human plasma from four healthy volunteers (Sanquin, Netherlands) was pooled, and stored at −20 °C until use. Peptides were tested similarly for fungicidal activity, after 18 h of incubation at 37 °C with shaking (120 rpm) under humidified conditions, bacterial and fungal survival was determined by plating 10 µL aliquots onto BA plates. Assays were performed in duplicate in round-bottom polypropylene microtiter plates (Costar) and repeated independently three times. Untreated controls included bacteria exposed to RPMI alone or RPMI with 50% plasma. Bactericidal and fungicidal activity was expressed as the lethal concentration 99.9% (LC99.9), defined as the lowest peptide concentration causing ≥99.9% reduction in numbers of CFU compared to the initial inoculum.

[2] = system: Staphylococcus aureus JAR060131; type: cell-based; details: JAR060131, 18 h
Method: as §1

[3] = system: TNF-α production by dTHP-1 macrophages stimulated with LPS (E. coli O111:B4); assay: Endotoxin neutralization, LPS-stimulated macrophages; type: cell-based, human; details: LPS 5 ng/mL with 1 or 2 µM peptide, 4 h, serum-free RPMI, ELISA, versus NT
Method: (§2) The endotoxin-neutralizing capacity of the peptides was assessed by measuring tumor necrosis factor-alpha (TNF-α) production by dTHP-1 macrophages. dTHP-1 macrophages were stimulated with either lipopolysaccharide (LPS; E. coli O111:B4; 5 ng/mL, Sigma-Aldrich) or UV-inactivated S. aureus JAR060131 (MOI 2; as described in Section 5.2), in the presence or absence of one or 2 µM peptides. Cells were cultured in serum-free RPMI and incubated for 4 h at 37 °C with 5% CO2. Positive controls consisted of cells stimulated with LPS or UV-S. aureus without peptide treatment (no treatment, NT), and unstimulated cells served as negative controls. After stimulation, cell supernatants were collected, and cytokine levels of TNF-α were quantified using human ELISA kits (R&D Systems, USA) according to the manufacturer’s instructions. Each condition was tested in triplicate.

[4] = system: TNF-α production by unstimulated dTHP-1 macrophages; assay: TNFα induction by peptides alone in macrophages; type: cell-based, human; details: 2 µM peptide, 4 h, no endotoxin stimulation, versus unstimulated cells
Method: as §2

[5] = system: S. aureus RN4220 (mCherry) in dTHP-1 macrophages; assay: Intracellular bacterial killing in macrophages; type: cell-based, Staphylococcus aureus; details: 24 h pre-treatment at 1 µM and 2 µM, MOI 2, CFU after lysis, versus no treatment
Method: Human monocytes (THP-1; TIB-202; ATCC) were cultured in RPMI 1,640 medium (Gibco) supplemented with 10% FBS. For differentiation into macrophage-like cells (dTHP-1), THP-1 monocytes were seeded in 96-well plates at 3 × 10^4 cells/well (100 µL) in RPMI supplemented with 50 ng/mL phorbol 12-myristate 13-acetate (PMA; Sigma-Aldrich), and incubated for 48 h. The protocol for intracellular killing was adapted from Tang et al. ([Tang et al., 2015]) with modifications. After differentiation, dTHP-1 cells were pre-treated with one or 2 µM peptide solutions in fresh RPMI for 24 h. Subsequently peptides were removed by washing three times with PBS. An mCherry-expressing S. aureus strain, prepared as described in Section 5.2, was used. This strain is efficiently internalized by macrophages ([Cuypers et al., 2024]). Bacteria were added to dTHP-1 cells at a multiplicity of infection (MOI) of 2:1 and incubated for 45 min at 37 °C with 5% CO2 for phagocytosis. Extracellular bacteria were then removed by washing the wells three times with 60 µL PBS, followed by a final wash with 200 µL PBS.dTHP-1 cells were either lysed immediately to quantify the number of intracellular bacteria, after phagocytosis (T = 0 h) or were incubated for 24 h (T = 24 h) in RPMI supplemented with 10 μg/mL gentamicin (Sigma-Aldrich) to inhibit extracellular bacterial growth (in both peptide-treated and control dTHP-1 cells). Internalized bacteria were quantified after lysing the cells with 0.025% Triton X-100 in PBS for 15 min. Lysates were serially diluted (both at 0 h and 24 h) and plated onto BA for CFU enumeration to assess intracellular bacterial survival.

HaCaT keratinocytes = assay: In vitro scratch wound assay; type: cell-based, human; details: 1 µM peptide (TGF-β 20 ng/mL); for Percentage of wound closure: 60 h (legend: 64 h); for Percentage of wound closure / Rate of cell migration: versus no treatment
Method: Cell migration following injury was assessed using an in vitro scratch assay with the IncuCyte wound maker tool (Sartorius). HaCaT keratinocytes were seeded in 96-well ImageLock plates (Sartorius) at 3 × 10^5 cells/well (100 µL) in DMEM supplemented with 10% FBS and incubated at 37 °C, 5% CO2 for 48 h, with medium change at 24 h, until confluence. Uniform scratches were introduced using the wound maker tool according to the manufacturer’s instructions. After wounding, wells were washed twice with 100 µL PBS to remove cell debris. Cells were then treated with 1 µM peptides in serum-free DMEM, to focus specifically on cell migration from the wound edges. The absence of serum minimizes interference with peptide activity. Transforming growth factor-beta (TGF-β; human; 20 ng/mL; Sigma-Aldrich) and 5% dimethyl sulfoxide (DMSO; Sigma-Aldrich) were used as positive and negative controls, respectively. Additional controls included serum-free DMEM (no-treatment control) and 50% (v/v) acetonitrile in Milli-Q water as solvent control. Wound closure was monitored using the IncuCyte S3 live-cell imaging system (Sartorius) with bright-field microscopy. Images were captured every 6 h for up to 60 h. Image analysis was performed using ImageJ software (version 1.53t, NIH, USA) with the “Wound Healing” plugin, as described by Suarez Arnedo et al. ([Suarez-Arnedo et al., 2020]). Quantitative parameters included wound width (µm), percent wound closure, and migration rate (µm/hour).

N=C(N)NCCC[C@H](NC(=O)[C@H](Cc1c[nH]c2ccccc12)NC(=O)[C@H](CCC(N)=O)NC(=O)[C@H](Cc1c[nH]c2ccccc12)NC(=O)[C@H](CCCNC(=N)N)NC(=O)[C@@H](N)CCCNC(=N)N)C(=O)NC[C@H](NC(=O)[C@H](CCCNC(=N)N)NC(=O)[C@H](Cc1c[nH]c2ccccc12)NC(=O)[C@H](CCC(N)=O)NC(=O)[C@H](Cc1c[nH]c2ccccc12)NC(=O)[C@H](CCCNC(=N)N)NC(=O)[C@@H](N)CCCNC(=N)N)C(=O)NCCCCCC(=O)N[C@@H](CSSC[C@H](NC(=O)CCCCCNC(=O)[C@H](CNC(=O)[C@H](CCCNC(=N)N)NC(=O)[C@H](Cc1c[nH]c2ccccc12)NC(=O)[C@H](CCC(N)=O)NC(=O)[C@H](Cc1c[nH]c2ccccc12)NC(=O)[C@H](CCCNC(=N)N)NC(=O)[C@@H](N)CCCNC(=N)N)NC(=O)[C@H](CCCNC(=N)N)NC(=O)[C@H](Cc1c[nH]c2ccccc12)NC(=O)[C@H](CCC(N)=O)NC(=O)[C@H](Cc1c[nH]c2ccccc12)NC(=O)[C@H](CCCNC(=N)N)NC(=O)[C@@H](N)CCCNC(=N)N)C(N)=O)C(N)=O [LBT-1] (I: H-RRWQWR[Dap][Ahx]C-NH2 / II: H-RRWQWR[Dap][Ahx]C-NH2 / III: H-RRWQWR / IV: H-RRWQWR; amide I:7-III:C, II:7-IV:C; disulfide I:9-II:9; N-terminus and C-terminus assumed)
LC99.9 [1]: 0.94 µM | LC99.9 [2]: 0.47 µM | Reduction of LPS-induced TNFα levels [3]: effectively neutralize | TNFα induction by peptide alone [4]: minimal but significant | Macrophage reduction of intracellular S. aureus burden 24 h post-phagocytosis [5]: significantly enhanced | Percentage of wound closure (HaCaT keratinocytes): significant wound closure | Rate of cell migration (HaCaT keratinocytes): ns

N=C(N)NCCC[C@H](NC(=O)[C@H](Cc1c[nH]c2ccccc12)NC(=O)[C@H](CCC(N)=O)NC(=O)[C@H](Cc1c[nH]c2ccccc12)NC(=O)[C@H](CCCNC(=N)N)NC(=O)[C@@H](N)CCCNC(=N)N)C(=O)NCCCC[C@H](NC(=O)[C@H](CCCNC(=N)N)NC(=O)[C@H](Cc1c[nH]c2ccccc12)NC(=O)[C@H](CCC(N)=O)NC(=O)[C@H](Cc1c[nH]c2ccccc12)NC(=O)[C@H](CCCNC(=N)N)NC(=O)[C@@H](N)CCCNC(=N)N)C(=O)NCCCCCC(=O)N[C@@H](CSSC[C@H](NC(=O)CCCCCNC(=O)[C@H](CCCCNC(=O)[C@H](CCCNC(=N)N)NC(=O)[C@H](Cc1c[nH]c2ccccc12)NC(=O)[C@H](CCC(N)=O)NC(=O)[C@H](Cc1c[nH]c2ccccc12)NC(=O)[C@H](CCCNC(=N)N)NC(=O)[C@@H](N)CCCNC(=N)N)NC(=O)[C@H](CCCNC(=N)N)NC(=O)[C@H](Cc1c[nH]c2ccccc12)NC(=O)[C@H](CCC(N)=O)NC(=O)[C@H](Cc1c[nH]c2ccccc12)NC(=O)[C@H](CCCNC(=N)N)NC(=O)[C@@H](N)CCCNC(=N)N)C(N)=O)C(N)=O [LBT] (I: H-RRWQWRK[Ahx]C-NH2 / II: H-RRWQWRK[Ahx]C-NH2 / III: H-RRWQWR / IV: H-RRWQWR; amide I:7-III:C, II:7-IV:C; disulfide I:9-II:9; N-terminus and C-terminus assumed)
LC99.9 [2]: 0.47 µM | Reduction of LPS-induced TNFα levels [3]: effectively neutralize | Macrophage reduction of intracellular S. aureus burden 24 h post-phagocytosis [5]: significantly enhanced | Percentage of wound closure (HaCaT keratinocytes): significant wound closure | Wound width reduction (HaCaT keratinocytes; serum-free DMEM, versus untreated control): significantly reduced wound width | Rate of cell migration (HaCaT keratinocytes): highest migration (p < 0.05)
